Assay results from US20260297080A1, “BICYCLIC COMPOUNDS AS CDK INHIBITORS” (BeOne Medicines I GmbH, priority 2022, published 2026).

Experiments:
CDK2/Cyclin E1 = CDK2/Cyclin E1 (Homo sapiens, UniProt P24941); experiment: CDK2/Cyclin E1 Biochemical Assay (TR-FRET), 0.060 mM ATP; settings: 0.15 μM Rb (Ser780)-biotin substrate, pH7.0, 60 min preincubation, 120 min reaction, room temperature
Outline: (§1)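 TR-FRET assay with 0.15 μM Rb (Ser780)-biotin substrate and 0-10 μM compound in 50 mM HEPES pH7.0, 50 mM MgCl2, 1 mM DTT. ATP was 0.060 mM for CDK2/Cyclin E1 and 0.015 mM for CDK1/Cyclin B1. Kinase was preincubated with compound 60 min, reacted 120 min at room temperature, and IC50 was fitted (four-parameter) from the 665/620 nm ratio.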

CDK1/Cyclin B1 = CDK1/Cyclin B1 (Homo sapiens, UniProt P06493); experiment: CDK1/Cyclin B1 Biochemical Assay (TR-FRET), 0.015 mM ATP; settings: 0.15 μM Rb (Ser780)-biotin substrate, pH7.0, 60 min preincubation, 120 min reaction, room temperature
Outline: as §1

Sequence of CDK1/Cyclin B1 (P06493 whole entry): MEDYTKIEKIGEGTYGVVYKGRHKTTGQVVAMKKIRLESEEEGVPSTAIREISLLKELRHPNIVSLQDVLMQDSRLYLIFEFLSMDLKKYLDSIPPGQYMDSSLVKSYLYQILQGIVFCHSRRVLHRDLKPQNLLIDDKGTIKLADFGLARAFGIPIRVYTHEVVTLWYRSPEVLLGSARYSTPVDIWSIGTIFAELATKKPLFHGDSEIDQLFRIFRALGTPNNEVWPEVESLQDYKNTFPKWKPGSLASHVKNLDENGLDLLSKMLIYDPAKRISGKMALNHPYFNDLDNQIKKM
Sequence of CDK1/Cyclin B1 (P14635 whole entry partner): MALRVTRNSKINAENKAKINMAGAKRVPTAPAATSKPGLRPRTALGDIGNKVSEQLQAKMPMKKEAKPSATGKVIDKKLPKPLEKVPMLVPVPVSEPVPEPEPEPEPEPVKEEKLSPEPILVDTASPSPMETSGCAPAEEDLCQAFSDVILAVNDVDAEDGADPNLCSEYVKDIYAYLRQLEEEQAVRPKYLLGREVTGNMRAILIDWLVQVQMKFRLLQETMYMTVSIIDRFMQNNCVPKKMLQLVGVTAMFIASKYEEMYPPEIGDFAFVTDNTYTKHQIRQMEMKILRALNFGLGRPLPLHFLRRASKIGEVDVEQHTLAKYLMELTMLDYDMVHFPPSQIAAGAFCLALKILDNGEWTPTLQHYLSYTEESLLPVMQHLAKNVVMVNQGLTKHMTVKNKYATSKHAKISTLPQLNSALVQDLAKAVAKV

IC50 (CDK2/Cyclin E1) [µM]	IC50 (CDK1/Cyclin B1) [µM]	Compound
0.0029	0.074	CN1Cc2c(ccc(Nc3cc([C@@H]4CC[C@H](OC(=O)NC5CCC(O)CC5)C4)[nH]n3)c2F)S1(=O)=O (single isomer, unassigned) [Example 166, cis-3-(3-((4-fluoro-2-methyl-1,1-dioxido-2,3-dihydrobenzo[d]isothiazol-5-yl)amino)-1H-pyrazol-5-yl)cyclopentyl(4-hydroxycyclohexyl)carbamate]
0.0064	0.626	COCC1(NC(=O)O[C@H]2CC[C@@H](c3cc(Nc4ccc5c(c4F)CN(C)S5(=O)=O)n[nH]3)C2)CC1 (relative stereo) [Example 344, cis-3-(3-((4-fluoro-2-methyl-1,1-dioxido-2,3-dihydrobenzo[d]isothiazol-5-yl)amino)-1H-pyrazol-5-yl)cyclopentyl(1-(methoxymethyl)cyclopropyl)carbamate]
0.0215	0.422	CC(C)NC(=O)O[C@H]1CC[C@@H](c2cc(Nc3ccc4c(c3)CN(c3ccc5c(c3)CNS5(=O)=O)S4(=O)=O)n[nH]2)C1 (relative stereo) [Example 18, cis-3-(3-((1,1,1′,1′-tetraoxido-2′,3′-dihydro-3H-[2,5′-bibenzo[d]isothiazol]-5-yl)amino)-1H-pyrazol-5-yl)cyclopentyl isopropylcarbamate]
0.001	0.031	CC(C)NC(=O)O[C@H]1CC[C@@H](c2cc(Nc3ccc4c(c3F)CS(=O)(=O)N4)n[nH]2)C1 (single isomer, unassigned) [Example 251b]
0.0011	0.0073	CC(C)(C)NC(=O)O[C@H]1CC[C@@H](c2cc(Nc3ccc4c(c3)CS(=O)(=O)N4)n[nH]2)C1 [Example 403b]
0.001	0.03	CC(C)(C)NC(=O)O[C@H]1CC[C@@H](c2cc(Nc3ccc4c(c3F)CNS4(=O)=O)n[nH]2)C1 (relative stereo) [Example 159, cis-3-(3-((4-fluoro-1,1-dioxido-2,3-dihydrobenzo[d]isothiazol-5-yl)amino)-1H-pyrazol-5-yl)cyclopentyl tert-butylcarbamate]
0.0006	0.012	CC1(NC(=O)O[C@H]2CC[C@@H](c3cc(Nc4ccc5c(c4)CCS(=O)(=O)N5)n[nH]3)C2)CC1 (single isomer, unassigned) [Example 249b, cis-3-(3-((2,2-dioxido-3,4-dihydro-1H-benzo[c][1,2]thiazin-6-yl)amino)-1H-pyrazol-5-yl)cyclopentyl(1-methylcyclopropyl)carbamate]
0.0019	0.078	CN1c2ccc(Nc3cc([C@@H]4CC[C@H](OC(=O)NC5(C)CCOC5)C4)[nH]n3)c(F)c2CS1(=O)=O (single isomer, unassigned) [Example 349c, cis-3-(3-((4-fluoro-1-methyl-2,2-dioxido-1,3-dihydrobenzo[c]isothiazol-5-yl)amino)-1H-pyrazol-5-yl)cyclopentyl(3-methyltetrahydrofuran-3-yl)carbamate]
0.0052	0.149	CC(C)NC(=O)O[C@H]1CC[C@@H](c2cc(Nc3ccc4c(c3F)CS(=O)(=O)N4C)n[nH]2)C1 (single isomer, unassigned) [Example 255b, cis-3-(3-((4-fluoro-1-methyl-2,2-dioxido-1,3-dihydrobenzo[c]isothiazol-5-yl)amino)-1H-pyrazol-5-yl)cyclopentyl isopropylcarbamate]
0.0009	0.019	O=C(NC1CCCC1)O[C@H]1CC[C@@H](c2cc(Nc3ccc4c(c3)CS(=O)(=O)N4)n[nH]2)C1 (single isomer, unassigned) [Example 381b, cis-3-(3-((2,2-dioxido-1,3-dihydrobenzo[c]isothiazol-5-yl)amino)-1H-pyrazol-5-yl)cyclopentyl cyclopentylcarbamate]
0.0007	0.013	COCC(C)(C)NC(=O)O[C@H]1CC[C@@H](c2cc(Nc3ccc4c(c3)CS(=O)(=O)N4C)n[nH]2)C1 (relative stereo) [Example 369, cis-3-(3-((1-methyl-2,2-dioxido-1,3-dihydrobenzo[c]isothiazol-5-yl)amino)-1H-pyrazol-5-yl)cyclopentyl(1-methoxy-2-methylpropan-2-yl)carbamate]
> 10	> 10	CCCNC(=O)O[C@H]1CC[C@@H](c2cc(Nc3cc(CO)c4c(c3F)CNS4(=O)=O)n[nH]2)C1 (relative stereo) [Example 366, cis-3-(3-((4-fluoro-7-(hydroxymethyl)-1,1-dioxido-2,3-dihydrobenzo[d]isothiazol-5-yl)amino)-1H-pyrazol-5-yl)cyclopentyl propylcarbamate]
0.087	0.789	CNC(=O)O[C@H]1CC[C@@H](c2cc(Nc3ccc4c(c3)CS(=O)(=O)N4C)n[nH]2)C1 (relative stereo) [Example 225, cis-3-(3-((1-methyl-2,2-dioxido-1,3-dihydrobenzo[c]isothiazol-5-yl)amino)-1H-pyrazol-5-yl)cyclopentyl methylcarbamate]
0.0006	0.0054	CC(C)NC(=O)O[C@H]1CC[C@@H](c2cc(Nc3ccc4c(c3)C(C)NS4(=O)=O)n[nH]2)C1 (single isomer, unassigned) [Example 321d, cis-3-(3-((3-methyl-1,1-dioxido-2,3-dihydrobenzo[d]isothiazol-5-yl)amino)-1H-pyrazol-5-yl)cyclopentyl isopropylcarbamate]
0.0036	0.324	O=C(NC1CCC12CC2)O[C@H]1CC[C@@H](c2cc(Nc3ccc4c(c3F)CNS4(=O)=O)n[nH]2)C1 (relative stereo) [Example 152, cis-3-(3-((4-fluoro-1,1-dioxido-2,3-dihydrobenzo[d]isothiazol-5-yl)amino)-1H-pyrazol-5-yl)cyclopentyl spiro[2.3]hexan-4-ylcarbamate]
0.018	0.329	COCCN1Cc2c(ccc(Nc3cc([C@@H]4CC[C@H](OC(=O)NC(C)C)C4)[nH]n3)c2C)S1(=O)=O (relative stereo) [Example 36, cis-3-(3-((2-(2-methoxyethyl)-4-methyl-1,1-dioxido-2,3-dihydrobenzo[d]isothiazol-5-yl)amino)-1H-pyrazol-5-yl)cyclopentyl isopropylcarbamate]
0.0063	0.531	CC(C)NC(=O)O[C@H]1CC[C@@H](c2cc(Nc3ccc4c(c3F)CN(C3CCN(C)C3=O)S4(=O)=O)n[nH]2)C1 (relative stereo) [Example 93, cis-3-(3-((4-fluoro-2-(1-methyl-2-oxopyrrolidin-3-yl)-1,1-dioxido-2,3-dihydrobenzo[d]isothiazol-5-yl)amino)-1H-pyrazol-5-yl)cyclopentyl isopropylcarbamate]
0.045	1.38	O=C(O[C@H]1CC[C@@H](c2cc(Nc3ccc4c(c3F)CNS4(=O)=O)n[nH]2)C1)N1CCOCC1 (relative stereo) [Example 373, cis-3-(3-((4-fluoro-1,1-dioxido-2,3-dihydrobenzo[d]isothiazol-5-yl)amino)-1H-pyrazol-5-yl)cyclopentyl morpholine-4-carboxylate]
0.0013	0.074	CC(C)NC(=O)O[C@H]1CC[C@@H](c2cc(Nc3ccc4c(c3F)CS(=O)(=O)N4CCCO)n[nH]2)C1 (relative stereo) [Example 389, cis-3-(3-((4-fluoro-1-(3-hydroxypropyl)-2,2-dioxido-1,3-dihydrobenzo[c]isothiazol-5-yl)amino)-1H-pyrazol-5-yl)cyclopentyl isopropylcarbamate]
